{"source": "patent US11998008B2", "about": "“Pesticides and methods of controlling pests” (The State of Israel, Ministry of Agriculture & Rural …, priority 2017, dated 2024)", "key": {"[1]": {"system": "Meloidogyne javanica second stage juveniles (J2s)", "assay": "Nematocidal activity: viability of J2 nematodes after 2 days exposure to the compound in a sealed box", "format": "in vivo", "settings": "comparison within the series", "description": "In exemplary procedures, the sedentary root-knot nematode from the genus Meloidogyne javanica second stage juveniles (J2s) was propagated on greenhouse-grown nematode-susceptible tomato Lycopersicon esculentum cv. ‘Avigail 870’ (Hazera, Shikmim, Israel), and nematode eggs were bulk-extracted from the roots with 0.05% (v/v) sodium hypochlorite (NaOCl) followed by sucrose flotation and successive sievings through nylon filters of 300, 120, 60, and 30 μm mesh sizes (AD Sinun Technologies, Petach Tikvah, Israel). For hatching J2, extracted eggs were placed on 30-μm sieves (AD Sinun Technologies) in 0.01 M MES (2-(N-morpholino) ethanesulfonic acid hydrate) pH 6.5 buffer under aseptic conditions in darkness for 5 days, and hatching J2s were collected for further experiments.\nSeven vials, each containing 300 J2 nematodes with 0.5 mL of 0.01 M 2-(N-morpholino)ethanesulfonic acid (MES) buffer, were exposed to cyclic ketone compounds in order to examine their nematocidal activity and reduction in viability. In addition, a humid environment in a sealed 1 L box was maintained by addition 5 ml of distilled H2O to a 50-mm Petri plate. The box was sealed after compound addition into each 50-mm Petri plate together with 5-250 mg of perlite particles and incubated for 2 days in the dark at 25±1° C. C5 and C6 saturated and α,β-unsaturated cyclic ketones were tested for their nematocidal activity. The J2 nematodes viability was examined following exposure to the cyclic ketone compounds, by a straightforward small-scale nematode extraction method, based on the traditional Baermann funnel method. Briefly, all nematode suspensions were loaded onto 30-μm (AD Sinun Technologies) filters (1.0-1.5 cm height, 1.1-2.0 cm^3 internal area), and the nematodes were washed twice with 300 μL of 0.01 M MES buffer in order to remove any residues. Then, filters holding nematodes were placed into 15 mL Falcon centrifuge tubes, each containing 900 μL of 0.01 M of MES buffer. These filters allow active passage of only living J2s while paralyzed or dead nematodes remain on top of the filter. The whole apparatus including the filter holding the nematodes and the Falcon tubes were placed in the dark for 3 h at 25±1° C. Then, the filters were removed and the viable nematodes, which were able to actively cross the filter toward the 0.01 M of MES buffer, were collected from the Falcon tube and counted using a Nematode Counting Slide (Chalex LLC, Portland, OR, USA) and a SV11 stereomicroscope (Zeiss, Jena, Germany).\nData were analyzed by the JMP 12 software package (SAS Inc., Cary, NC, USA). Mean numbers of viable J2s under various conditions were subjected to one-way analysis of variance (ANOVA), followed by the Tukey-Kramer multiple comparison test, with significance set at P<0.05."}, "tomato strain Abigail": {"system": "tomato strain Abigail", "assay": "Field phytotoxicity in loam soil, seedlings planted one day after application", "format": "in vivo", "settings": "emulsion, viable seedlings counted eleven days after planting"}, "S. rolfsii": {"system": "S. rolfsii", "assay": "Fungicidal activity assay on PDA in sealed Petri dish (growth inhibition and mortality)", "format": "cell-based, Sclerotinia rolfsii", "settings": "Agroathelia rolfsii; S. rolfsii; NA + number = still viable in the highest concentration tested (given as >); read-out: M - Mortality, minimal concentration that killed the fungus"}, "[2]": {"system": "Fusarium oxysporum f sp. radicis-cucumerinum (FORC)", "assay": "Effect on FORC in loam soil in buckets", "format": "in vivo", "protocol": "(§1) The activity of trans-2-octenal was examined against phytopathogenic fungi and weeds. The experiment was performed in large buckets (110 L), which bottoms were removed, and therefore the loam in the bucket was continuous with the ground. The soil was inoculated one day prior the application of the compound. Soil inoculation was performed as follows: spores of Fusarium oxysporum f sp. radicis-cucumerinum (FORC) were collected from culture plates and 25 mL of spore suspension at concentration of 9×10^5 was mixed with 10 L of tap water and then poured on the soil of each bucket. […] Half of the buckets were sealed with nylon while the other half remained open. Five days later, soil samples from three different depths (10, 20, and 30 cm) were taken from each bucket for fungal isolation and determination of fungal survival. […] After 3 days, the number of colonies was counted. […] Similar results were obtained at close condition, except at depth 30 cm at concentration of 62.5 ppm."}, "[3]": {"system": "seeds of corn, cotton, and peanut", "assay": "Phytotoxicity: seed germination in treated sandy soil in pots", "format": "in vivo", "settings": "soil treated with 54 ppm, nine days", "protocol": "Sandy soil from a plot that was treated with 54 ppm of trans-2-octenal was removed to small pots in which either seeds of corn, cotton, and peanut were sown (FIGS. 16A-16C) or tomato seedlings were planted therein (FIG. 16E)."}, "[4]": {"system": "Fusarium oxysporum f sp. radicis-lycopersici (Forl)", "assay": "Effect on Forl in loam soil in buckets, applied by irrigation system", "format": "in vivo", "settings": "open and close conditions, except depth 30 cm at the lowest concentration in close condition", "protocol": "as §1\nThe experiment was repeated with the following modifications: different phytopathogenic fungus—Fusarium oxysporum f sp. radicis-lycopersici (Forl), lower concentrations—31.25, 62.5, and 93.75 ppm, and the application of the compound was done using the irrigation system."}, "Tomato plants": {"system": "Tomato plants", "assay": "Phytotoxicity on tomato plants in soil, compound on perlite particles", "format": "in vivo", "settings": "one day after treatment", "description": "In exemplary procedures, the phytotixicity of trans-2-octenal and 2-cyclopenten-1-one was examined in triplicates for each concentration: 250, 1,000, 4,000, and 20,000 ppm compared to control."}}, "data": [{"smiles": "CCCCC/C=C/C=O", "note": "[trans-2-octenal]", "values": [{"measurement": "nematocidal activity in words", "setting": "[1]", "value": "relatively less potent nematicide"}, {"measurement": "concentration at which significant phytotoxic effect occurred", "setting": "tomato strain Abigail", "value": 400, "unit": "ppm"}, {"measurement": "MFC", "setting": "S. rolfsii", "value": 6.25, "unit": "µg/mL"}, {"measurement": "concentration sufficient to eliminate FORC", "setting": "[2]; close condition, except at depth 30 cm", "value": 62.5, "unit": "ppm"}, {"measurement": "concentration sufficient to eliminate FORC", "setting": "[2]; open conditions, all depths examined (10, 20, 30 cm), 5 days", "value": 62.5, "unit": "ppm"}, {"measurement": "number of seeds germinated in treated versus untreated soil", "setting": "[3]", "value": "did not differ significantly"}, {"measurement": "concentration at which elimination of Forl was achieved", "setting": "[4]", "value": 31.25, "unit": "ppm"}, {"measurement": "phytotoxicity", "setting": "Tomato plants; 250 ppm", "value": "No phytotoxicity"}, {"measurement": "phytotoxicity", "setting": "Tomato plants; 1,000 ppm", "value": "No phytotoxicity"}, {"measurement": "phytotoxicity", "setting": "Tomato plants; 4,000 ppm", "value": "No phytotoxicity"}, {"measurement": "phytotoxicity", "setting": "Tomato plants; 20,000 ppm", "value": "No phytotoxicity"}]}]}
